This is an account of results in patent US20230416238A1, “N-[(1,3-BENZOXAZOL-2-YL)-HETEROCYCLE]AMIDE DERIVATIVES FOR THE TREATMENT AND PROPHYLAXIS OF HEPATITIS B VIRUS INFECTION” (Hoffmann-La Roche Inc., priority 2020, published 2023).

What all share (type): cell-based
One data set relates to HBsAg. The experiment in a line: PHH HBV natural infection assay, HBsAg (alphalisa). The note with it: Hepatitis B virus, Hepatocyte, read-out: HBsAg IC50. Put shortly: (§1)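 Primary human hepatocytes infected with HBV at 200 GE/cell plus 4% PEG8000 for 24 h, then sandwich-cultured 72 h in medium with 1% DMSO. Compound applied twice at 72-h intervals; supernatant HBsAg and HBeAg quantified by AlphaLISA.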
For orientation: Alpha assays give light when donor and acceptor beads are brought close together.

In a further data set the test system is HBeAg. The experiment in a line: PHH HBV natural infection assay, HBeAg (alphalisa). The note with it: Hepatitis B virus, Hepatocyte, read-out: HBeAg IC50. The procedure, abridged:
as §1

A short description of data set [1]: Cytotoxicity in PHH natural infection assay (Cell Counting Kit-8). The note with it: HBV-infected primary human hepatocytes, CCK8. Put shortly: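 HBV-infected primary human hepatocytes (200 GE/cell, 4% PEG8000, 24 h), then sandwich-cultured 72 h. Cells dosed at varying concentrations for two 72-hour cycles, with medium refreshed. Cytotoxicity read by CCK-8 at end of treatment.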
(Tetrazolium assays rely on reduction of a dye to a coloured formazan, in cell work by metabolically active cells.)

By IC50 is commonly meant the point on the concentration scale where inhibition reaches its midpoint. By CC50 is commonly meant the concentration at which the toxic effect on the cells reaches its halfway point. Read a low CC50 as greater toxicity to the cells.

The structures appear in SMILES notation.

In the case of `COc1ccc(C(=O)NC2CC3(C2)CN(c2nc4cc(Cl)ccc4o2)C3)cn1` [Example 46, N-[2-(5-chloro-1,3-benzoxazol-2-yl)-2-azaspiro[3.3]heptan-6-yl]-6-methoxy-pyridine-3-carboxamide], the IC50 turned out to be 4.74 µM with HBsAg and 2.86 µM with HBeAg. For the same molecule, the half-maximal cytotoxic concentration (CC50) at 144 h in data set [1] was above 100 µM.

In the case of `COCCOc1cc(C(=O)NC2CC3(C2)CN(c2nc4cc(Cl)ccc4o2)C3)ccn1` [Example 39, N-[2-(5-chloro-1,3-benzoxazol-2-yl)-2-azaspiro[3.3]heptan-6-yl]-2-(2-methoxyethoxy)pyridine-4-carboxamide], the concentration for half-maximal inhibition (IC50) in the data set with HBsAg is 6.47 µM; in the data set with HBeAg, 4.37 µM. This molecule also gave a CC50 at 144 h in data set [1] above 100 µM.

As for `O=C(NC1CCC2(CCN(c3nc4cc(Cl)ccc4o3)C2)C1)C1CCS(=O)(=O)C1` (stereo not drawn) [Example 74, N-[2-(5-chloro-1,3-benzoxazol-2-yl)-2-azaspiro[4.4]nonan-8-yl]-1,1-dioxo-thiolane-3-carboxamide], the concentration for half-maximal inhibition (IC50) with HBsAg stood at 4.33 µM; in the data set on HBeAg, 3.73 µM. Also, in data set [1], the 50% cytotoxic concentration (CC50) at 144 h was above 100 µM.

In the case of `O=C(NC1CCC2(CC1)CCN(c1nc3cc(Cl)ccc3o1)CC2)c1ccc([S+]([O-])CC2CC2)o1` (stereo not drawn) [Example 104, N-[3-(5-chloro-1,3-benzoxazol-2-yl)-3-azaspiro[5.5]undecan-9-yl]-5-(cyclopropylmethylsulfinyl)furan-2-carboxamide], the results for the IC50 in the data set with HBsAg and with HBeAg were 1.16 µM and 0.996 µM, respectively. Besides, the CC50 at 144 h in data set [1] stood at 94.8 µM.

`O=C(NC1CC2(CCN(c3nc4cc(Cl)ccc4o3)CC2)C1)c1ccc(C(F)(F)F)o1` [Example 77, N-[7-(5-chloro-1,3-benzoxazol-2-yl)-7-azaspiro[3.5]nonan-2-yl]-5-(trifluoromethyl)furan-2-carboxamide]: the IC50 in the data set with HBsAg stood at 5.04 µM; in the data set on HBeAg it was 2.98 µM. The half-maximal cytotoxic concentration (CC50) at 144 h in data set [1] is above 100 µM.

Consider `O=C(NC1CC2(C1)CN(c1nc3cc(Cl)ccc3o1)C2)c1ccc([S+]([O-])CC2CC2)o1` (stereo not drawn) [Example 61, N-[2-(5-chloro-1,3-benzoxazol-2-yl)-2-azaspiro[3.3]heptan-6-yl]-5-(cyclopropylmethylsulfinyl)furan-2-carboxamide], for which the half-maximal inhibitory concentration (IC50) in the data set on HBsAg turned out to be 0.189 µM; in the data set with HBeAg, 0.402 µM. For the same molecule, the CC50 at 144 h in data set [1] came to 96 µM.

Regarding `CC1(NC(=O)c2ccnc(C(F)(F)F)c2)CC2(CN(c3nc4cc(Cl)ccc4o3)C2)C1` [Example 68, N-[2-(5-chloro-1,3-benzoxazol-2-yl)-6-methyl-2-azaspiro[3.3]heptan-6-yl]-2-(trifluoromethyl)pyridine-4-carboxamide], the IC50 in the data set with HBsAg was 4.35 µM; with HBeAg, 4.69 µM. In data set [1], the half-maximal cytotoxic concentration (CC50) at 144 h was 86.9 µM.

For the molecule `O=C(NC1CCC2(CC1)CCN(c1nc3cc(Cl)ccc3o1)CC2)C1CCC(F)(F)CC1` [Example 102, N-[3-(5-chloro-1,3-benzoxazol-2-yl)-3-azaspiro[5.5]undecan-9-yl]-4,4-difluoro-cyclohexanecarboxamide], the concentration for half-maximal inhibition (IC50) was 3.6 µM with HBsAg and 3.77 µM with HBeAg. Further, in data set [1], the CC50 at 144 h is above 100 µM.

Consider `N=S(=O)(c1ccc(C(=O)NC2CCC3(CC2)CCN(c2nc4cc(Cl)ccc4o2)CC3)o1)C1CC1` (stereo not drawn) [Example 120, N-[3-(5-chloro-1,3-benzoxazol-2-yl)-3-azaspiro[5.5]undecan-9-yl]-5-(cyclopropylsulfonimidoyl)furan-2-carboxamide], for which the concentration for half-maximal inhibition (IC50) with HBsAg was 1.55 µM; in the data set on HBeAg it was 1.43 µM. Also, the CC50 at 144 h in data set [1] amounted to 66.6 µM.

In the case of `O=C(NCC1CCN(c2nc3cc(Cl)ccc3o2)C1)c1ccnc(S(=O)(=O)C2CC2)c1` (stereo not drawn) [Example 11, N-[[1-(5-chloro-1,3-benzoxazol-2-yl)pyrrolidin-3-yl]methyl]-2-cyclopropylsulfonyl-pyridine-4-carboxamide], the IC50 with HBsAg is 9.14 µM; with HBeAg it was 7.85 µM. Also, the CC50 at 144 h in data set [1] is above 10 µM.

As to `CC(C)CC(=O)NC1CCC2(CC1)CCN(c1nc3cc(Cl)ccc3o1)CC2` [Example 80, N-[3-(5-chloro-1,3-benzoxazol-2-yl)-3-azaspiro[5.5]undecan-9-yl]-3-methyl-butanamide], the IC50 in the data set with HBsAg stood at 2.7 µM; in the data set with HBeAg, 2.79 µM. In data set [1], this molecule returned a half-maximal cytotoxic concentration (CC50) at 144 h above 100 µM.

`O=C(NCC1CCN(c2nc3cc(Cl)ccc3o2)CC1)C1CS(=O)(=O)C1` [Example 10, N-[[1-(5-chloro-1,3-benzoxazol-2-yl)-4-piperidyl]methyl]-1,1-dioxo-thietane-3-carboxamide]: the IC50 in the data set with HBsAg turned out to be 9.67 µM; in the data set with HBeAg, 10.4 µM. The CC50 at 144 h in data set [1] is above 100 µM.

In the case of `COc1cc(C(=O)NC2CCC3(CC2)CCN(c2nc4cc(Cl)ccc4o2)CC3)ccn1` [Example 106, N-[3-(5-chloro-1,3-benzoxazol-2-yl)-3-azaspiro[5.5]undecan-9-yl]-2-methoxy-pyridine-4-carboxamide], the IC50 with HBsAg was 0.59 µM; in the data set on HBeAg, 0.48 µM. This molecule also returned a CC50 at 144 h in data set [1] above 100 µM.

As to `CC(C)CC(=O)NC1CC2(C1)CN(c1nc3cc(Cl)ccc3o1)C2` [Example 28, N-[2-(5-chloro-1,3-benzoxazol-2-yl)-2-azaspiro[3.3]heptan-6-yl]-3-methyl-butanamide], the IC50 came out at 3.31 µM in the data set with HBsAg and 2.18 µM with HBeAg. The same molecule showed a 50% cytotoxic concentration (CC50) at 144 h in data set [1] of 76.6 µM.

As for `Cc1ccc(S(=O)(=O)N2CCC(CC(=O)NCC3CCN(c4nc5cc(Cl)ccc5o4)CC3)C2)cc1` (stereo not drawn) [Example 18, N-[[1-(5-chloro-1,3-benzoxazol-2-yl)-4-piperidyl]methyl]-2-[1-(p-tolylsulfonyl)pyrrolidin-3-yl]acetamide], the values for the IC50 in the data set with HBsAg and with HBeAg were 3.9 µM and 3.78 µM, respectively. Also, the half-maximal cytotoxic concentration (CC50) at 144 h in data set [1] is above 10 µM.

Consider `Cc1cc(C(=O)NC2CC3(C2)CN(c2nc4cc(Cl)ccc4o2)C3)ccn1` [Example 45, N-[2-(5-chloro-1,3-benzoxazol-2-yl)-2-azaspiro[3.3]heptan-6-yl]-2-methyl-pyridine-4-carboxamide], for which the IC50 was found to be 2.73 µM with HBsAg and 1.3 µM in the data set on HBeAg. The CC50 at 144 h in data set [1] was determined as 80.1 µM.

For the molecule `CS(=O)(=O)Cc1ccc(C(=O)NC2CC3(C2)CN(c2nc4cc(Cl)ccc4o2)C3)o1` [Example 51, N-[2-(5-chloro-1,3-benzoxazol-2-yl)-2-azaspiro[3.3]heptan-6-yl]-5-(methylsulfonylmethyl)furan-2-carboxamide], the IC50 in the data set with HBsAg was found to be 2.22 µM; with HBeAg, 1.95 µM. The 50% cytotoxic concentration (CC50) at 144 h in data set [1] is above 100 µM.

For the molecule `CS(=O)(=O)CCC(=O)NC1CCC2(CC1)CCN(c1nc3cc(Cl)ccc3o1)CC2` [Example 83, N-[3-(5-chloro-1,3-benzoxazol-2-yl)-3-azaspiro[5.5]undecan-9-yl]-3-methylsulfonyl-propanamide], the IC50 turned out to be 2.49 µM with HBsAg and 1.79 µM with HBeAg. In data set [1], this molecule returned a CC50 at 144 h of 98.6 µM.

As for `O=C(NCC1CCN(c2nc3cc(Cl)ccc3o2)CC1)c1ccc(C(F)(F)F)nc1` [Example 2, N-[[1-(5-chloro-1,3-benzoxazol-2-yl)-4-piperidyl]methyl]-6-(trifluoromethyl)pyridine-3-carboxamide], the IC50 with HBsAg was 8.1 µM; in the data set on HBeAg it was 6.31 µM. The same molecule registered a cytotoxic concentration (CC50) at 144 h in data set [1] above 10 µM.

Regarding `C[S+]([O-])c1ccc(C(=O)NC2CCC3(CC2)CCN(c2nc4cc(Cl)ccc4o2)CC3)o1` (stereo not drawn) [Example 116, N-[3-(5-chloro-1,3-benzoxazol-2-yl)-3-azaspiro[5.5]undecan-9-yl]-5-methylsulfinyl-furan-2-carboxamide], the results for the IC50 in the data set on HBsAg and in the data set on HBeAg were 2.86 µM and 2.34 µM, respectively. The midpoint of cytotoxicity in data set [1], the CC50 at 144 h, lay at 68.5 µM.

`O=C(NC1CC2(CCN(c3nc4cc(Cl)ccc4o3)C2)C1)c1ccc(C(F)(F)F)o1` (stereo not drawn) [Example 72, N-[6-(5-chloro-1,3-benzoxazol-2-yl)-6-azaspiro[3.4]octan-2-yl]-5-(trifluoromethyl)furan-2-carboxamide]: the IC50 with HBsAg came out at 7.9 µM; with HBeAg it was 4.36 µM. Further, in data set [1], the CC50 at 144 h worked out at 81.4 µM.

On to `CC1(C(=O)NC2CC3(C2)CN(c2nc4cc(Cl)ccc4o2)C3)CCS(=O)(=O)C1` (stereo not drawn) [Example 33, N-[2-(5-chloro-1,3-benzoxazol-2-yl)-2-azaspiro[3.3]heptan-6-yl]-3-methyl-1,1-dioxo-thiolane-3-carboxamide], for which the results for the IC50 with HBsAg and in the data set on HBeAg were 4.51 µM and 4.4 µM, respectively. This molecule also returned a cytotoxic concentration (CC50) at 144 h in data set [1] above 100 µM.

For the molecule `CC(C)(C)C(=O)NC1CC2(C1)CN(c1nc3cc(Cl)ccc3o1)C2` [Example 27, N-[2-(5-chloro-1,3-benzoxazol-2-yl)-2-azaspiro[3.3]heptan-6-yl]-2,2-dimethyl-propanamide], the IC50 with HBsAg was 5.67 µM; in the data set on HBeAg, 3.69 µM. Also, the cytotoxic concentration (CC50) at 144 h in data set [1] is above 100 µM.

For `CS(=O)(=O)N1CCC(CC(=O)NCC2CCN(c3nc4cc(Cl)ccc4o3)CC2)CC1` [Example 19, N-[[1-(5-chloro-1,3-benzoxazol-2-yl)-4-piperidyl]methyl]-2-(1-methylsulfonyl-4-piperidyl)acetamide], the concentration for half-maximal inhibition (IC50) in the data set with HBsAg was determined as 7.74 µM; in the data set on HBeAg, 3.75 µM. The molecule further registered a CC50 at 144 h in data set [1] above 10 µM.

Turning to `NC(=O)c1cc(C(=O)NCC2CCN(c3nc4cc(Cl)ccc4o3)CC2)ccn1` [Example 6, N4-[[1-(5-chloro-1,3-benzoxazol-2-yl)-4-piperidyl]methyl]pyridine-2,4-dicarboxamide], the half-inhibitory concentration (IC50) came to 4.36 µM with HBsAg and 4.43 µM in the data set with HBeAg. Further, the CC50 at 144 h in data set [1] was above 10 µM.

With `O=C(NC1C2CN(c3nc4cc(Cl)ccc4o3)CC21)c1ccc(C(F)(F)F)o1` (stereo not drawn) [Example 125, N-[3-(5-chloro-1,3-benzoxazol-2-yl)-3-azabicyclo[3.1.0]hexan-6-yl]-5-(trifluoromethyl)furan-2-carboxamide], the values for the half-inhibitory concentration (IC50) in the data set on HBsAg and with HBeAg were 4.74 µM and 5.41 µM, respectively. This molecule also came in with a cytotoxic concentration (CC50) at 144 h in data set [1] above 100 µM.
